Results reported in PMC3016297 (Bioorganic & medicinal chemistry, 2010).
Read-outs that look alike come from different tables or passages of the source.

Legend:
mock-infected MT-4 cell [1] = settings: read-out: IC50, concentration that inhibits mock-infected MT-4 cell growth by 50%; mock-infected MT-4 cells; cited from earlier work
HIV-1IIIB = settings: cited from earlier work; for EC50: HIV-1IIIB infected H9 lymphocytes
HIV-1NL4-3 = HIV-1NL4-3 inhibition assay in MT-4 lymphocytes; type: cell-based; settings: HIV-1NL4-3 infected MT-4 cells; for fold more active than the corresponding compound not linked to AZT: 49 vs 63, 52 vs 64
mock-infected MT-4 cell [2] = experiment: Growth inhibition of mock-infected MT-4 cells; type: cell-based; settings: Homo sapiens, MT4, read-out: IC50, concentration that inhibits mock-infected MT-4 cell growth by 50%

Row | Compound | EC50 (HIV-1IIIB) | anti-HIV activity in words (HIV-1NL4-3) | further results
1 | C=C(C)[C@@H]1CC[C@]2(C(=O)O)CC[C@]3(C)[C@H](CC[C@@H]4[C@@]5(C)CC[C@H](OC(=O)CC(C)(C)C(=O)O)C(C)(C)[C@@H]5CC[C@]43C)[C@@H]12 [Compound 2, 3-O-(3',3'-dimethylsuccinyl)betulinic acid] | < 0.35 nM |  | IC50 (mock-infected MT-4 cell [1]): > 5 µM
2 | CC(C)[C@@H]1CC[C@]2(CO)CC[C@]3(C)[C@H](CC[C@@H]4[C@@]5(C)CC[C@H](OC(=O)CCCC(=O)O)C(C)(C)[C@@H]5CC[C@]43C)[C@@H]12 [Compound 4, 3-O-glutaryldihydrobetulin] | 0.02 nM |  | 
3 | C=C(C)[C@@H]1CC[C@]2(COC(=O)CC(C)(C)CC(=O)O)CC[C@]3(C)[C@H](CC[C@@H]4[C@@]5(C)CC[C@H](OC(=O)CC(C)(C)CC(=O)O)C(C)(C)[C@@H]5CC[C@]43C)[C@@H]12 [Compound 5, 3,28-di-O-(3',3'-dimethylglutaryl)betulin] | 0.66 nM |  | 
4 | C=C(C)[C@@H]1CC[C@]2(COC(=O)C(C)(C)CC(=O)O)CC[C@]3(C)[C@H](CC[C@@H]4[C@@]5(C)CC[C@H](OC(=O)CC(C)(C)C(=O)O)C(C)(C)[C@@H]5CC[C@]43C)[C@@H]12 [Compound 6, 3-O-(3',3'-dimethylsuccinyl)-28-O-(2",2"-dimethylsuccinyl)betulin] | 0.87 nM |  | fold more potent against HIV replication than its isomer with a 3,3-dimethylsuccinyl side chain at C-28 (HIV-1IIIB; H9 lymphocytes assay): 230 fold
5 | C=C(C)[C@@H]1CC[C@]2(COC(=O)CCC(=O)OC[C@H]3O[C@@H](n4cc(C)c(=O)[nH]c4=O)C[C@@H]3N=[N+]=[N-])CC[C@]3(C)[C@H](CC[C@@H]4[C@@]5(C)CC[C@H](OC(=O)CC(C)(C)C(=O)O)C(C)(C)[C@@H]5CC[C@]43C)[C@@H]12 [Compound 49, 3'-Azido-3'-deoxythymidine-5'-yl 3-O-(3',3'-dimethylsuccinyl)-lup-20(29)en-28-yl succinate] |  |  | fold more active than the corresponding compound not linked to AZT (HIV-1NL4-3): four
6 | C=C(C)[C@@H]1CC[C@]2(COC(=O)CCCC(=O)OC[C@H]3O[C@@H](n4cc(C)c(=O)[nH]c4=O)C[C@@H]3N=[N+]=[N-])CC[C@]3(C)[C@H](CC[C@@H]4[C@@]5(C)CC[C@H](OC(=O)CC(C)(C)C(=O)O)C(C)(C)[C@@H]5CC[C@]43C)[C@@H]12 [Compound 52, 3'-Azido-3'-deoxythymidine-5'-yl 3-O-(3',3'-dimethylsuccinyl)-lup-20(29)en-28-yl glutarate] |  |  | fold more active than the corresponding compound not linked to AZT (HIV-1NL4-3): five
7 | C=C(C)[C@@H]1CC[C@]2(COC(=O)CC(C)(C)CC(=O)OC[C@H]3O[C@@H](n4cc(C)c(=O)[nH]c4=O)C[C@@H]3N=[N+]=[N-])CC[C@]3(C)[C@H](CC[C@@H]4[C@@]5(C)CC[C@H](OC(=O)CC(C)(C)CC(=O)O)C(C)(C)[C@@H]5CC[C@]43C)[C@@H]12 [Compound 54, 3'-Azido-3'-deoxythymidine-5'-yl 3-O-(3',3'-dimethylglutaryl)-lup-20(29)en-28-yl 3,3-dimethylglutarate] |  | only moderate activity | 
8 | Cc1cn([C@H]2C[C@H](N=[N+]=[N-])C(COC(=O)CC(C)(C)CC(=O)OC[C@]34CC[C@@H](C(C)C)[C@@H]3[C@H]3CC[C@@H]5[C@@]6(C)CC[C@H](OC(=O)CCCC(=O)O)C(C)(C)[C@@H]6CC[C@@]5(C)[C@]3(C)CC4)O2)c(=O)[nH]c1=O (stereo partly drawn) [Compound 61, 3'-Azido-3'-deoxythymidine-5'-yl 3-O-glutaryl-lup-28-yl 3,3-dimethylglutarate] |  | the weakest compound | 
9 | Cc1cn([C@H]2C[C@H](N=[N+]=[N-])C(COC(=O)CC(C)(C)CC(=O)OC[C@]34CC[C@@H](C(C)C)[C@@H]3[C@H]3CC[C@@H]5[C@@]6(C)CC[C@H](OC(=O)CC(C)(C)CC(=O)O)C(C)(C)[C@@H]6CC[C@@]5(C)[C@]3(C)CC4)O2)c(=O)[nH]c1=O (stereo partly drawn) [Compound 62, 3'-Azido-3'-deoxythymidine-5'-yl 3-O-(3',3'-dimethylglutaryl)-lup-28-yl 3,3-dimethylglutarate] |  | only moderate activity | 
10 | C=C(C)[C@@H]1CC[C@]2(COC(=O)CCCC(=O)O)CC[C@]3(C)[C@H](CC[C@@H]4[C@@]5(C)CC[C@H](OC(=O)CC(C)(C)C(=O)O)C(C)(C)[C@@H]5CC[C@]43C)[C@@H]12 [Compound 64] |  |  | IC50 (mock-infected MT-4 cell [2]): > 14.6 µM
